The values that follow come from ChEMBL document CHEMBL1156516, “Protein kinase C epsilon regulates gamma-aminobutyrate type A receptor sensitivity to ethanol and benzodiazepines through phosphorylation of gamma2 subunits” (J Biol Chem, 2007).

One may read the IC50 as the concentration needed to halve the response being measured.

Changes are numbered by the printed parent chain. Active and inactive are the calls of the source. The calls are words filed in the database; no cut-off is given here.

The species entered for experiment [1] is Mus musculus. The experiment is described as follows: Activity of human GABA alpha-1-beta-2-gamma-2S327 receptor in wild type mouse assessed as ethanol induced GABA current.
For experiment [2], the system named is Mus musculus. The experiment is described as follows: Induction of rotarod ataxia in PKCepsilon deficient mouse at 1 mg/kg. The experiment is classed as functional, organism-based. Also on record: dose 1 mg/kg.
For experiment [3], the system named is T1, Protein kinase C epsilon type (Homo sapiens), Q02156 [M486A].
T1 sequence (whole entry): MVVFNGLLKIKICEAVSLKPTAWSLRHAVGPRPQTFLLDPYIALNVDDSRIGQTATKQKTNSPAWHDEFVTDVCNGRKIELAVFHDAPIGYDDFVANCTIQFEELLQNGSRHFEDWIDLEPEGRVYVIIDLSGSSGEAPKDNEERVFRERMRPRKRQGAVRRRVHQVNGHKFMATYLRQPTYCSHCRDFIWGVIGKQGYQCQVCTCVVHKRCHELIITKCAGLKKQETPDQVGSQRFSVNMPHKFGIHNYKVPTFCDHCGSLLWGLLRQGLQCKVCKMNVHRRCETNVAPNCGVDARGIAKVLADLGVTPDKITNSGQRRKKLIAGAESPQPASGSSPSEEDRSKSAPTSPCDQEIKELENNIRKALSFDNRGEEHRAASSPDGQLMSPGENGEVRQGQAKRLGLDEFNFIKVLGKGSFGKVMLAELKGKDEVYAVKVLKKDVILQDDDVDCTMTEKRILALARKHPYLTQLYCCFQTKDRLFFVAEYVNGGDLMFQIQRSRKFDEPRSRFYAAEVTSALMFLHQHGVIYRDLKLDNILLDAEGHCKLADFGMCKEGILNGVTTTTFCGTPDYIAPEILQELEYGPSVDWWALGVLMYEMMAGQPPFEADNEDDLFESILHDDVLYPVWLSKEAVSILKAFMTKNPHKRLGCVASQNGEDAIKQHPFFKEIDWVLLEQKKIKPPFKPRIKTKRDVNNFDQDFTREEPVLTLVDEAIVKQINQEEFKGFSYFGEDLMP
The experiment is described as follows: (§1) Inhibition of human PKCepsilon type M486A mutant.

Experiment [4] concerns the target T2, Gamma-aminobutyric acid receptor subunit alpha-1 (Homo sapiens) (UniProt P14867).
T2 sequence (whole entry): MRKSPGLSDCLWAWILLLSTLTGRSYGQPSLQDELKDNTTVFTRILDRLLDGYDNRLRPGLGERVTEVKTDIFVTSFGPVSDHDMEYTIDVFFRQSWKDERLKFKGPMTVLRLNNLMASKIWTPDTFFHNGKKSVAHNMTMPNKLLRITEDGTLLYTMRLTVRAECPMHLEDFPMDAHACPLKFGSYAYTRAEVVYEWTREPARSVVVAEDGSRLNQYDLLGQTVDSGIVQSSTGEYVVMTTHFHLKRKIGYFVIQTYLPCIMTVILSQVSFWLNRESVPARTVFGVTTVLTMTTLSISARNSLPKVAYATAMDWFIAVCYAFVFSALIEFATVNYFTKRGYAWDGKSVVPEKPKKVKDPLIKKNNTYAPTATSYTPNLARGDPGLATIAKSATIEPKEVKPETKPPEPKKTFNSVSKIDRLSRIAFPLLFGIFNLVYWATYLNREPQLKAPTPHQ
The note with it: HEK293.

Experiment [5] concerns the target T3, GABA-A receptor; alpha-1/beta-2/gamma-2 (Homo sapiens) (UniProt P14867+P47870+P18507). The note with it: HEK293.
The subject of experiment [6] is HEK293. The settings on record: Homo sapiens.
Experiment [7] addresses T3, GABA-A receptor; alpha-1/beta-2/gamma-2 (Homo sapiens). The settings on record: HEK293. The source holds these as a separate data set.
Experiment [8] has as its system HEK293. The note with it: Homo sapiens. This is another data set of the same source.
Experiment [9] has as its system HEK293. The experiment is described as follows: Activity of human GABA alpha-1-beta-2-gamma-2L S327A mutant in HEK293 cells expressing as-PKCepsilon assessed as inhibition of ethanol induced GABA current at 30 uM. Format: cell-based.
In experiment [10] the target is T4, Protein kinase C epsilon type (Homo sapiens, UniProt Q02156).
T4 sequence (Q02156 whole entry): T1 sequence (whole entry) with A486M
The experiment is described as follows: Inhibition of human PKCepsilon.

For experiment [11], the system named is HEK293. The experiment is described as follows: Activity of human GABA alpha-1-beta-2-gamma-2S327 receptor in HEK293 cells expressing as-PKCepsilon cells assessed as induction of ethanol induced GABA current. Format: cell-based.
The target in experiment [12] is Protein kinase C delta type (Homo sapiens, UniProt Q05655). Put plainly: Inhibition of human PKCdelta.
For experiment [13], the target named is Protein kinase C epsilon type (Homo sapiens, UniProt Q02156, M486A). The description is as §1.
Experiment [14] addresses Protein kinase C gamma type (Homo sapiens, UniProt P05129). Put plainly: Inhibition of human PKCgamma.

Chain of Protein kinase C delta type (Q05655 whole entry): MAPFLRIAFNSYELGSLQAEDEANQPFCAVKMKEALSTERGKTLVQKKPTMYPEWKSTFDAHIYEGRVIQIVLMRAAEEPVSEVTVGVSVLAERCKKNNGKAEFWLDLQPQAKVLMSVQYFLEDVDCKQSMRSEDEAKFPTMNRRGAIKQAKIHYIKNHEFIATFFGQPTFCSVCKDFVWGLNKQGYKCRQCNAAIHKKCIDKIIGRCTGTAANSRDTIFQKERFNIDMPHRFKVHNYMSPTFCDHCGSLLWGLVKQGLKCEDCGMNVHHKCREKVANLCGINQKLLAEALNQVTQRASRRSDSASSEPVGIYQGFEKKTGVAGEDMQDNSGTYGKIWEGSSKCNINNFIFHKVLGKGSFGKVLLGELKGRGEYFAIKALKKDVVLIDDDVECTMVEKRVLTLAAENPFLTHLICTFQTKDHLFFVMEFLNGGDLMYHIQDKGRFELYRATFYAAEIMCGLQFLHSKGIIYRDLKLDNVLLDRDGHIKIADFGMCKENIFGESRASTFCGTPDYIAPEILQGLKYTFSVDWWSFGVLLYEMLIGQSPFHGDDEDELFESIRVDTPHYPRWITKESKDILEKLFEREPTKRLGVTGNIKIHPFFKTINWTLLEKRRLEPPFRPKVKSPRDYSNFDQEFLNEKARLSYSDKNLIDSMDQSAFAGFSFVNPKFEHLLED

For `CN1C(=O)CN=C(c2ccccc2)c2cc(Cl)ccc21`, the Activity in the experiment filed under Mus musculus [1] was found to be 75%.
For the molecule `Cc1ccc(-c2nc3ccc(C)cn3c2CC(=O)N(C)C)cc1`, the outcome (in the experiment with Mus musculus [2]; in [3]) was Active.
On to `CN1C(=O)CN=C(c2ccccc2F)c2cc([N+](=O)[O-])ccc21`, for which the logEC50 turned out to be 1.99 in experiment [4]; 1.46 in [5]; 1.59 with HEK293 [6]; 1.46 in experiment [7]; 1.8 in the experiment with HEK293 [8].
Consider `CN1CCc2cc3c(cc2[C@H]1[C@@H]1OC(=O)c2c1ccc1c2OCO1)OCO3`, for which the outcome in the experiment with HEK293 [9] was Active.
As for `CC(C)(C)n1nc(-c2cccc3ccccc23)c2c(N)ncnc21`, the IC50 in [10] was above 100000 nM; in experiment [12] it was above 100000 nM; in [13] it was 21 nM; in experiment [14] it was above 100000 nM. In addition, the result with HEK293 [11] was Active.
`CN(C)CCCn1cc(C2=C(c3c[nH]c4ccccc34)C(=O)NC2=O)c2ccccc21` [GF-109203]: the half-maximal inhibitory concentration (IC50) in experiment [10] amounted to 6 nM; in [12] it was 32 nM; in experiment [13], 12 nM; in experiment [14], 30 nM.
